Measurements: patent EP0187355A1, “Process for preparing beta-lactam antibiotics” (E.R. Squibb & Sons, Inc., priority 1981, dated 1982)
Counter-ions that a name gives are not always drawn. Like-named read-outs stand apart in the source and are kept apart here.

Legend:
Assay in all cases: MIC, agar dilution
Type in all cases: cell-based
[1] = system: Acinetobacter calcoaceticus, 8333; settings: Acinetobacter calcoaceticus, 8333, 18 h, K-10 agar, 10^4 CFU, 37°C, read-out: M.I.C.
Summary of the method: (§1)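 Agar dilution in K-10 agar; final drug 100–0.05 µg/ml, twofold steps. Inoculum 10^4 CFU/spot via multipoint inoculator from 18–20 h broth culture diluted 1:100. Incubation 37°C, 18 h; MIC = lowest concentration with no growth.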

[2] = system: Citrobacter freundii, 9518; settings: K-10 agar, 10^4 CFU, 37°C, 18 hours, read-out: M.I.C.
Summary of the method: as §1

[3] = system: Enterobacter aerogenes, 10078; settings: Klebsiella aerogenes, 10078, 18 h, Enterobacter aerogenes, 10078; K-10 agar, 10^4 CFU, 37°C, 18 hours; read-out: M.I.C.
Summary of the method: as §1

Escherichia coli, 10857 = settings: Escherichia coli, 10857, 18 h, K-10 agar, 10^4 CFU, 37°C
Summary of the method: as §1

Escherichia coli, 10896 = settings: K-10 agar, 10^4 CFU, 37°C, 18 hours
Summary of the method: as §1

Escherichia coli, 10909 = settings: K-10 agar, 10^4 CFU, 37°C, 18 hours
Summary of the method: as §1

Escherichia coli, 8294 = settings: Escherichia coli, 8294, 18 h, K-10 agar, 10^4 CFU, 37°C
Summary of the method: as §1

[4] = system: Klebsiella aerogenes, 10440; settings: K-10 agar, 10^4 CFU, 37°C, 18 hours, read-out: M.I.C.
Summary of the method: as §1

[5] = system: Klebsiella pneumoniae, 9527; settings: Klebsiella pneumoniae, 9527, 18 h, K-10 agar, 10^4 CFU, 37°C, read-out: M.I.C.
Summary of the method: as §1

Proteus mirabilis, 3855 = settings: Proteus mirabilis, 3855, 18 h, K-10 agar, 10^4 CFU, 37°C
Summary of the method: as §1

Proteus rettgeri, 8479 = settings: Providencia rettgeri, K-10 agar, 10^4 CFU, 37°C, 18 hours, read-out: M.I.C.
Summary of the method: as §1

Proteus vulgaris, 9416 = settings: K-10 agar, 10^4 CFU, 37°C
Summary of the method: as §1

[6] = system: Pseudomonas aeruginosa, 8329; settings: K-10 agar, 10^4 CFU, 37°C, 18 hours, read-out: M.I.C.
Summary of the method: as §1

[7] = system: Pseudomonas aeruginosa, 9545; settings: Pseudomonas aeruginosa, 9545, 18 h, K-10 agar, 10^4 CFU, 37°C, read-out: M.I.C.
Summary of the method: as §1

Salmonella typhosa, 1195 = settings: Salmonella enterica, TYPHOSA, 18 h, K-10 agar, 10^4 CFU, 37°C
Summary of the method: as §1

[8] = system: Serratia marcescens, 9783; settings: Serratia marcescens, 9783, 18 h, K-10 agar, 10^4 CFU, 37°C, read-out: M.I.C.
Summary of the method: as §1

Shigella sonnei, 8449 = settings: Shigella sonnei, 8449, 18 h, K-10 agar, 10^4 CFU, 37°C
Summary of the method: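 Test strains are first grown in broth at 37°C for 18–20 hours, then diluted 1:100. Compounds are serially halved and mixed into K-10 agar at final levels from 100 to 0.05 µg/ml. Each plate receives about 10^4 CFU per organism, and growth is scored after 18 hours at 37°C.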

[9] = system: Staphylococcus aureus, 10165; settings: Staphylococcus aureus, 10165; K-10 agar, 10^4 CFU, 37°C, 18 hours; read-out: M.I.C.
Summary of the method: as §1

[10] = system: Staphylococcus aureus, 1276; settings: Staphylococcus aureus, 1276; K-10 agar, 10^4 CFU, 37°C, 18 hours; read-out: M.I.C.
Summary of the method: as §1

[11] = system: Staphylococcus aureus, 2399; settings: Staphylococcus aureus, 2399, 18 h, Staphylococcus aureus, 2399; K-10 agar, 10^4 CFU, 37°C, 18 hours; read-out: M.I.C.
Summary of the method: as §1

[12] = system: Staphylococcus aureus, 2400; settings: Staphylococcus aureus, 2400; K-10 agar, 10^4 CFU, 37°C, 18 hours; read-out: M.I.C.
Summary of the method: as §1

[13] = system: Streptococcus faecalis, 9011; settings: Enterococcus faecalis; Streptococcus faecalis, 9011; K-10 agar, 10^4 CFU, 37°C, 18 hours; read-out: M.I.C.
Summary of the method: as §1

[14] = system: Enterobacter cloacae, 8236; settings: Enterobacter cloacae, 8236, 18 h, K-10 agar, 10^4 CFU, 37°C
Summary of the method: (§2)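 Broth cultures grown 18-20 h at 37°C, diluted 1:100 in K-10 broth, applied by multipoint inoculator at 10^4 CFU onto K-10 agar holding twofold compound dilutions, 100 to 0.05 µg/ml final. MIC taken as lowest concentration inhibiting growth.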

Micrococcus luteus, 2495 = settings: Micrococcus luteus, 2495, 18 h, K-10 agar, 10^4 CFU, 37°C, read-out: M.I.C.
Summary of the method: as §2

[15] = system: Streptococcus agalactiae, 9287; settings: Streptococcus agalactiae, 9287, 18 h, K-10 agar, 10^4 CFU, 37°C, read-out: M.I.C.
Summary of the method: as §2

Row | Compound | MIC [1] [µg/mL] | MIC [2] [µg/mL] | MIC [3] [µg/mL] | MIC (Escherichia coli, 10857) [µg/mL] | MIC (Escherichia coli, 10896) [µg/mL] | MIC (Escherichia coli, 10909) [µg/mL] | MIC (Escherichia coli, 8294) [µg/mL] | MIC [4] [µg/mL] | MIC [5] [µg/mL] | MIC (Proteus rettgeri, 8479) [µg/mL] | MIC [6] [µg/mL] | MIC [7] [µg/mL] | MIC (Salmonella typhosa, 1195) [µg/mL] | MIC [8] [µg/mL] | MIC (Shigella sonnei, 8449) [µg/mL] | MIC [9] [µg/mL] | MIC [10] [µg/mL] | MIC [11] [µg/mL] | MIC [12] [µg/mL] | MIC [13] [µg/mL] | also measured
1 | C[C@H]1[C@H](NC(=O)/C(=N\OC(C)(C)C(=O)OCc2ccc([N+](=O)[O-])cc2)c2csc(N)n2)C(=O)N1S(=O)(=O)O [Example 15, [3S-[3α(Z),4β]]-3-[[(2-Amino-4-thiazolyl)[[1,1-dimethyl-2-[(4-nitrophenyl)methoxy]-2-oxoethoxy]-imino]acetyl]amino]-4-methyl-2-oxo-1-azetidinesulfonic acid, potassium salt] | > 100 | 25 | 100 | 0.4 | 6.3 | 6.3 | 50 | > 100 | 12.5 | 1.6 | > 100 | 12.5 | 6.3 | 50 | 25 | 50 | 6.3 | 6.3 | 12.5 | > 100 | MIC (Proteus mirabilis, 3855; read-out: M.I.C.): 6.3 µg/mL; MIC (Proteus vulgaris, 9416; 18 hours, read-out: M.I.C.): 1.6 µg/mL; MIC [14]: 25 µg/mL; MIC (Micrococcus luteus, 2495): 1.6 µg/mL; MIC [15]: 0.8 µg/mL
2 | CON=C(C(=O)NC1C(=O)N(S(=O)(=O)O)C1C)c1csc(N)n1 (racemic) [Example 7, [3α(Z),4α]-3-[[(2-Amino-4-thiazolyl) (methoxy-imino)acetyl]amino]-4-methyl-2-oxo-l-azetidinesulfonic acid, potassium salt] | 50 | 0.2 | 0.4 | < 0.05 | 0.2 | 0.1 | 0.2 | 0.4 | 0.1 | < 0.05 | > 100 | 0.8 | < 0.05 | 0.4 | 0.2 | > 100 | 100 | 100 | 50 | > 100 | MIC (Proteus mirabilis, 3855; read-out: M.I.C.): < 0.05 µg/mL; MIC (Proteus vulgaris, 9416; 18 hours, read-out: M.I.C.): < 0.05 µg/mL; MIC [14]: 0.2 µg/mL; MIC (Micrococcus luteus, 2495): 6.3 µg/mL; MIC [15]: 3.1 µg/mL
3 | C[C@H]1[C@H](NC(=O)Cc2ccccc2)C(=O)N1S(=O)(=O)O [Example 3, (3S-trans)-4-Methyl-2-oxo-3-[(phenylacetyl)amino]-1-azetidinesulfonic acid, potassium salt] | > 100 | 100 | > 100 | 50 | 50 | 25 | 100 | 100 | 100 | 50 | > 100 | 50 | 50 | 50 | 50 | 100 | 50 | 50 | 50 | > 100 | MIC (Proteus mirabilis, 3855; read-out: M.I.C.): 100 µg/mL; MIC (Proteus vulgaris, 9416; 18 hours, read-out: M.I.C.): 100 µg/mL; MIC [14]: > 100 µg/mL; MIC (Micrococcus luteus, 2495): 25 µg/mL; MIC [15]: 25 µg/mL
4 | C[C@H]1[C@H](NC(=O)/C(=N\OCC(=O)O)c2csc(N)n2)C(=O)N1S(=O)(=O)O [Example 31, [3S-[3α(Z),4β]]-3-[[[(Carboxymethoxy)imino](2-amino-4-thiazolyl)acetyl]amino]-4-methyl-2-oxo-l-azetidinesulfonic acid, dipotassium salt] | 100 | 0.2 | 0.4 | 0.2 | 0.1 | 0.1 | 0.4 | 0.8 | 0.2 | 0.05 | 12.5 | 0.8 | 0.2 | 0.4 | 0.4 | > 100 | > 100 | > 100 | > 100 | > 100 | MIC (Proteus mirabilis, 3855; read-out: M.I.C.): 0.2 µg/mL; MIC (Proteus vulgaris, 9416; 18 hours, read-out: M.I.C.): 0.2 µg/mL; MIC [14]: 0.2 µg/mL; MIC (Micrococcus luteus, 2495): > 100 µg/mL; MIC [15]: 100 µg/mL
5 | CO/N=C(\C(=O)NC1C(=O)N(S(=O)(=O)O)C1(C)C)c1csc(N)n1 (racemic) [Example 25, [3±(Z)]-3-[[(2-Amino-4-thiazolyl) (methoxyimino)-acet^yl]amino]-4,4-dimethyl-2-oxo-1-azetidinesulfonic acid, potassium salt] | > 100 | 25 | 100 | 6.3 | 25 | 25 | 50 | 100 | 6.3 | 0.8 | > 100 | > 100 | 12.5 | 100 | 25 | > 100 | > 100 | > 100 | > 100 | > 100 | MIC (Proteus mirabilis, 3855): 12.5 µg/mL; MIC (Proteus vulgaris, 9416; Proteus vulgaris, 9416, 18 h): 12.5 µg/mL; MIC [14]: 100 µg/mL; MIC (Micrococcus luteus, 2495): > 100 µg/mL; MIC [15]: > 100 µg/mL
